From ChEMBL document CHEMBL1201862, “PubChem BioAssay data set” (2004)
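Method: 48-hour compound exposure of cells in 96-well plates, five concentrations, linear interpolation of endpoints. GI50 is the concentration that inhibits growth by half.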 The source made the active and inactive calls. Rule as the data show it: active = GI50 up to about 1.1 µM and inactive = higher.

What was measured:
Assay in all cases: NCI-60 cell line screen, 48 h
HOP-92 = system: HOP-92
UACC-257 = system: UACC-257
NCI-H522 = system: NCI-H522
M14 = system: M14
TK-10 = system: TK-10
OVCAR-3 = system: OVCAR-3
COLO 205 = system: COLO 205
SF-295 = system: SF-295
SW-620 = system: SW-620
ACHN = system: ACHN
SK-MEL-28 = system: SK-MEL-28
SK-MEL-5 = system: SK-MEL-5
OVCAR-8 = system: OVCAR-8
U-251 = system: U-251
NCI-H23 = system: NCI-H23
SK-OV-3 = system: SK-OV-3
RXF 393 = system: RXF 393
NCI-H460 = system: NCI-H460
UACC-62 = system: UACC-62
CAKI-1 = system: CAKI-1

Measured: GI50

ClCC1(CCl)COC1
inactive: HOP-92 > 100 µM | UACC-257 > 100 µM | NCI-H522 > 100 µM | M14 > 100 µM | TK-10 > 100 µM | OVCAR-3 > 100 µM | COLO 205 > 100 µM | SF-295 > 100 µM | SW-620 > 100 µM | ACHN > 100 µM | SK-MEL-28 > 100 µM | SK-MEL-5 > 100 µM | OVCAR-8 > 100 µM | U-251 > 100 µM | NCI-H23 > 100 µM | SK-OV-3 > 100 µM | RXF 393 > 100 µM | NCI-H460 > 100 µM

COc1nc(SC)nc2c1cnn2C1OC(C(O)CO)C(OC)C1O (stereo unspecified)
inactive: UACC-62 > 65.6 µM | UACC-257 > 75.7 µM | NCI-H522 > 100 µM | OVCAR-3 99.3 µM | COLO 205 > 74.5 µM | SF-295 > 100 µM | SW-620 > 100 µM | SK-MEL-28 > 100 µM | SK-MEL-5 > 100 µM | OVCAR-8 > 100 µM | U-251 > 100 µM | NCI-H23 > 100 µM | SK-OV-3 > 100 µM | RXF 393 > 83.2 µM | NCI-H460 74.6 µM

COc1c(Br)cc(CC(N)=O)c(O)c1Br
inactive: UACC-62 > 100 µM | HOP-92 > 100 µM | UACC-257 > 100 µM | NCI-H522 > 100 µM | TK-10 > 100 µM | OVCAR-3 > 100 µM | COLO 205 > 100 µM | SF-295 > 100 µM | SW-620 > 100 µM | ACHN > 100 µM | SK-MEL-28 > 100 µM | SK-MEL-5 > 100 µM | OVCAR-8 > 100 µM | U-251 > 100 µM | NCI-H23 > 100 µM | SK-OV-3 > 100 µM | CAKI-1 > 100 µM | RXF 393 > 100 µM

CN(/N=C1\C(=O)Nc2ccccc21)c1ccccc1
inactive: UACC-62 > 100 µM | HOP-92 22.5 µM | UACC-257 > 100 µM | NCI-H522 87.3 µM | M14 74.6 µM | TK-10 69.2 µM | OVCAR-3 33.7 µM | COLO 205 > 10 µM | SF-295 40.7 µM | SW-620 > 100 µM | ACHN 77.6 µM | SK-MEL-28 > 100 µM | SK-MEL-5 32.6 µM | OVCAR-8 26.4 µM | U-251 74.8 µM | NCI-H23 74.6 µM | SK-OV-3 > 100 µM | CAKI-1 22.1 µM | NCI-H460 91.8 µM

c1ccc(CSC2(SCc3ccccc3)CCCC2)cc1
inactive: UACC-62 > 10 µM | NCI-H522 > 10 µM | M14 > 10 µM | TK-10 > 10 µM | OVCAR-3 > 10 µM | COLO 205 > 10 µM | SF-295 > 10 µM | SW-620 > 10 µM | ACHN > 10 µM | SK-MEL-28 > 10 µM | SK-MEL-5 > 10 µM | OVCAR-8 > 10 µM | U-251 > 10 µM | NCI-H23 > 10 µM | SK-OV-3 > 10 µM | CAKI-1 > 10 µM | RXF 393 > 10 µM | NCI-H460 > 10 µM

CN(C)C(=S)/N=c1\ssc(=S)n1C
inactive: UACC-62 > 100 µM | HOP-92 > 100 µM | UACC-257 > 100 µM | NCI-H522 > 100 µM | M14 > 100 µM | TK-10 > 100 µM | SF-295 > 100 µM | SW-620 > 100 µM | ACHN > 100 µM | SK-MEL-28 > 100 µM | SK-MEL-5 > 100 µM | OVCAR-8 > 100 µM | U-251 > 100 µM | NCI-H23 > 100 µM | SK-OV-3 > 100 µM | CAKI-1 > 100 µM | RXF 393 > 100 µM | NCI-H460 > 100 µM

CN(C)CCCn1c(-c2cc(C(C)(C)C)c(O)c(C(C)(C)C)c2)cs/c1=N\c1ccccc1
inactive: UACC-62 2.3 µM | HOP-92 2.26 µM | UACC-257 1.47 µM | M14 1.72 µM | TK-10 1.95 µM | OVCAR-3 1.61 µM | SF-295 1.79 µM | SW-620 76.6 µM | ACHN 2.98 µM | SK-MEL-28 2.39 µM | OVCAR-8 1.97 µM | U-251 2.93 µM | NCI-H23 1.68 µM | SK-OV-3 1.96 µM | CAKI-1 17.8 µM | RXF 393 2.17 µM | NCI-H460 2.35 µM

CC(=O)OCC1OC(n2c3c(c(-c4ccco4)c(C#N)c2=S)CCC3)C(OC(C)=O)C(OC(C)=O)C1OC(C)=O (stereo unspecified)
inactive: UACC-62 42.2 µM | HOP-92 15.6 µM | UACC-257 > 100 µM | M14 > 100 µM | TK-10 69.3 µM | OVCAR-3 > 100 µM | COLO 205 > 100 µM | SF-295 > 100 µM | SW-620 55.8 µM | ACHN > 100 µM | SK-MEL-28 > 100 µM | SK-MEL-5 31.6 µM | U-251 54.6 µM | NCI-H23 > 100 µM | SK-OV-3 > 100 µM | CAKI-1 55.1 µM | RXF 393 20.2 µM | NCI-H460 > 100 µM

Cc1cnc(/N=c2\sc(C)cn2-c2ncc(C)s2)s1
inactive: UACC-62 > 100 µM | HOP-92 > 100 µM | UACC-257 > 100 µM | NCI-H522 > 100 µM | M14 > 100 µM | TK-10 > 100 µM | OVCAR-3 > 100 µM | COLO 205 > 100 µM | SF-295 > 100 µM | SW-620 > 100 µM | ACHN > 100 µM | SK-MEL-28 > 100 µM | SK-MEL-5 > 100 µM | OVCAR-8 > 100 µM | U-251 > 100 µM | NCI-H23 > 100 µM | SK-OV-3 > 100 µM | RXF 393 > 100 µM | NCI-H460 > 100 µM

COC(=O)c1cn(CC(O)CCl)nn1 (stereo unspecified)
inactive: HOP-92 > 100 µM | UACC-257 > 100 µM | NCI-H522 > 100 µM | M14 > 100 µM | TK-10 > 100 µM | OVCAR-3 > 100 µM | COLO 205 > 100 µM | SW-620 > 100 µM | ACHN > 100 µM | SK-MEL-28 > 100 µM | SK-MEL-5 > 100 µM | OVCAR-8 > 100 µM | U-251 > 100 µM | NCI-H23 > 100 µM | CAKI-1 > 100 µM | RXF 393 > 100 µM | NCI-H460 > 100 µM

COc1cc(C2C(C(=O)O)=C(CO)Oc3cc4c(cc32)OCO4)cc(OC)c1O (stereo unspecified)
inactive: UACC-62 > 100 µM | HOP-92 > 100 µM | UACC-257 > 100 µM | M14 > 100 µM | TK-10 > 100 µM | OVCAR-3 > 100 µM | COLO 205 > 100 µM | SF-295 > 100 µM | SW-620 > 100 µM | ACHN > 100 µM | SK-MEL-28 > 100 µM | SK-MEL-5 > 100 µM | OVCAR-8 > 100 µM | U-251 > 100 µM | SK-OV-3 > 100 µM | CAKI-1 > 100 µM | NCI-H460 > 100 µM

CC(=O)OC(OC(C)=O)n1cc(C=O)c2ccccc21
inactive: UACC-257 > 100 µM | NCI-H522 > 100 µM | M14 > 100 µM | TK-10 > 100 µM | OVCAR-3 > 100 µM | COLO 205 > 100 µM | SF-295 > 100 µM | SW-620 > 100 µM | ACHN > 100 µM | SK-MEL-28 > 100 µM | SK-MEL-5 > 100 µM | OVCAR-8 > 100 µM | U-251 > 100 µM | NCI-H23 > 100 µM | SK-OV-3 > 100 µM | CAKI-1 > 100 µM | NCI-H460 > 100 µM

N#C/N=N/c1cc(Cl)c(/N=N/C#N)cc1Cl
inactive: UACC-62 > 100 µM | HOP-92 > 100 µM | UACC-257 > 100 µM | NCI-H522 51.3 µM | M14 > 100 µM | TK-10 > 100 µM | OVCAR-3 > 100 µM | COLO 205 97.5 µM | SF-295 > 100 µM | SW-620 35.3 µM | ACHN > 100 µM | SK-MEL-28 > 100 µM | SK-MEL-5 > 100 µM | OVCAR-8 > 100 µM | U-251 > 100 µM | NCI-H23 > 100 µM | SK-OV-3 > 100 µM | RXF 393 > 100 µM | NCI-H460 > 100 µM

O=[N+]([O-])c1ccc2[nH]c3c(-c4ccccc4)nccc3c2c1
inactive: UACC-62 14.8 µM | HOP-92 16.3 µM | UACC-257 30 µM | NCI-H522 14.3 µM | OVCAR-3 14.3 µM | COLO 205 34.2 µM | SF-295 18 µM | SW-620 36 µM | SK-MEL-28 29.2 µM | SK-MEL-5 15.4 µM | OVCAR-8 22 µM | U-251 19.5 µM | NCI-H23 32.1 µM | SK-OV-3 12.9 µM | RXF 393 25.4 µM | NCI-H460 14.4 µM

O=C(O)C12CCCCC1CCCC2 (stereo unspecified)
inactive: UACC-62 > 100 µM | HOP-92 > 100 µM | NCI-H522 > 100 µM | M14 > 100 µM | TK-10 > 100 µM | OVCAR-3 > 100 µM | COLO 205 > 100 µM | SF-295 > 100 µM | SW-620 > 100 µM | ACHN > 100 µM | SK-MEL-28 > 100 µM | SK-MEL-5 > 100 µM | OVCAR-8 > 100 µM | U-251 > 100 µM | NCI-H23 > 100 µM | SK-OV-3 > 100 µM | CAKI-1 > 100 µM | NCI-H460 > 100 µM

O=C(c1ccccc1Br)C(F)(F)F
inactive: UACC-62 > 100 µM | NCI-H522 > 100 µM | M14 > 100 µM | TK-10 > 100 µM | OVCAR-3 > 100 µM | COLO 205 88.9 µM | SF-295 > 100 µM | SW-620 > 100 µM | ACHN > 100 µM | SK-MEL-28 > 100 µM | SK-MEL-5 > 100 µM | OVCAR-8 > 100 µM | U-251 > 100 µM | NCI-H23 > 100 µM | SK-OV-3 > 100 µM | CAKI-1 > 100 µM | NCI-H460 > 100 µM
